Test results: patent publication US7816407B2, “Agmatine and agmatine analogs in the treatment of epilepsy, seizure, and electroconvulsive disorders” (University of Kentucky Research Foundation, priority 2000, dated 2010)

Tests used:
[1] = system: MES-induced seizure spread (hindlimb tonic extension); assay: Maximal Electroshock Seizure (MES) test; assay type: in vivo, rat
Text: The MES is an experimental model for generalized tonic-clonic seizures that identifies compounds which prevent seizure spread. The MES model is highly reproducible and has a consistent endpoint. An advantage of this model is that the behavioral and electrographic seizures are consistent with those observed in humans (Levy, R. H., Antiepileptic drugs. 3rd Ed. 1989, New York: Raven Press. xxvii, 1025. p. 85-102).
In the MES test, the animal receives an electrical stimulus, 0.2 seconds in duration, via corneal electrodes primed with an electrolyte solution containing an anesthetic agent. The 0.2 second stimulation is generated with 150 mA in rats at 60 Hz. Twenty rats, weighing between 105 g and 130 g receive an electrical stimulus 15 minutes, 30 minutes, 1 hour, 2 hours, 4 hours, 8 hours and 12 hours after oral administration of a dose of about 30 mg/kg of agmatine in phosphate buffered in saline per kg of the animal. The test endpoint, electrogenic seizure, is manifested as hindlimb tonic extension.

rats [2] = assay: Positional sense test; assay type: in vivo, rat; settings: oral or intraperitoneal, 30 mg/kg
Method: (§1) Toxicity in mice and rats is assessed using three screens: the rotorod in mice, positional sense, and gait in rats. In mice, the test compound is administered at doses of 30, 100, and 300 mg/kg prior to evaluation in the toxicity screens. The mice are tested 0.5 hours and 4 hours after administration of the test compound. In rats, the test compound is administered at 30 mg/kg prior to the toxicity assessment. The rats are tested at 0.25, 0.5, 1, 2, and 4 hours after administration of the test compound.
Behavioral toxicity in rats weighing between 105 and 130 g is assessed by the positional sense test. […] If the rat experiences neurological toxicity, it will not be able to quickly lift its leg back to a normal position.

mice = assay: Rotorod neurotoxicity test; assay type: in vivo, mouse; settings: doses as high as 300 mg/kg
Method: as §1
Toxicity in mice weighing between 20.5 and 25.5 g is assessed using the standardized rotorod test (Dunham, M. S. and T. A. Miya, A note on a simple apparatus for detecting neurological deficit in rats and mice, J. Am. Pharm. Assoc. Sci. Edit (1957) 46:208-209). Control mice can maintain their equilibrium for an extended period of time when they are placed on a 6 rpm rotation rod. Neurologically impaired animals cannot maintain equilibrium for one minute in each of three successive trials.

rats [3] = assay: Gait and stance test; assay type: in vivo, rat; settings: oral or intraperitoneal, 30 mg/kg
Method: as §1
In the gait and stance test, neurotoxicity is indicated by a circular or zigzag gait after administration of the test compound. In addition, ataxia, abnormal spread of the legs, abnormal posture, tremor hyperactivity, lack of exploratory behavior, somnolence, stupor, or catalepsy can indicate neurotoxicity. This toxicity test was conducted on 20 rats, weighing between 105 and 130 g.

Compound: NCCCCN=C(N)N [agmatine, 4-aminobutylguanidine]
- rats protected from MES-induced seizure spread ([1]; intraperitoneal, 4 hours before electrical shock): 50%
- rats protected from MES-induced seizure spread ([1]; oral 30 mg/kg, shock 0.25 hours after administration): 37.5%
- rats protected from MES-induced seizure spread ([1]; oral 30 mg/kg, shock 0.5 hours after administration): 12.5%
- rats protected from MES-induced seizure spread ([1]; oral 30 mg/kg, shock 2 hours after administration): 12.5%
- rats protected from MES-induced seizure spread ([1]; oral 30 mg/kg, shock 4 hours after administration): 75%
- rats protected from MES-induced seizure spread ([1]; oral 30 mg/kg, shock 6 hours after administration): 25%
- neurotoxicity in positional sense test (rats [2]): no neurotoxicity
- behavioral or neurotoxicity in rotorod test (mice): none of these animals showed any evidence of behavioral or neurotoxicity
- neurotoxicity in gait and stance test (rats [3]): no neurotoxicity
